Read-outs that look alike come from different tables or passages of the source.
How the values were obtained:
[1] = biological target: hCB2 (Homo sapiens, UniProt P34972); assay: bioSens-All ebBRET effector biosensor signaling profiling, HEK293; format: cell-based; parameters: host or cells: HEK293 (HEK293SL clone), transient
Method: (§1) ebBRET-based effector membrane translocation biosensor assays were conducted at Domain Therapeutics NA Inc. (Montreal, QC, Canada) as previously described. […] HEK293 cells were maintained in Dulbecco’s Modified Eagle Medium (DMEM) (Wisent) supplemented with 1% penicillin- streptomycin (Wisent) and 10% (or 2 % for transfection) fetal bovine serum (Wisent) at 37°C with 5% CO2. All biosensor-coding plasmids and related information are the property of Domain Therapeutics NA Inc. The total amount of transfected DNA was adjusted and kept constant at 1 μg per mL of cell culture to be transfected using salmon sperm DNA (Invitrogen) as ‘carrier’ DNA, PEI (polyethylenimine 25 kDa linear, PolyScience) and DNA (3:1 ml PEI:mg DNA ratio) were first diluted separately in 150 mM NaCl then mixed and incubated for at least 20 minutes at room temperature to allow for the formation of DNA/PEI complexes. During the incubation, HEK293 cells were detached, counted, and re-suspended in maintenance medium to a 350,000 cells per mL density. At the end of the incubation period, the DNA/PEI mixture was added to the cells. Cells were finally distributed in 96-well plates (White Opaque 96-well /Microplates, Greiner) at a density of 35,000 cells per well. Forty-eight hours post-transfection, medium was aspirated and replaced with 100 μl of Hank’s Balanced Salt Solution buffer (HBSS) (Wisent) per well using 450-Select TS Biotek plate washer. After 60 min incubation in this medium, 10 μL of 10 μM e-Coelenterazine Prolume Purple (Methoxy e-CTZ) (Nanolight) was added to each well for a final concentration of 1 μM immediately followed by addition of increasing concentrations of the test compounds to each well using the HP D300 digital dispenser (Tecan). All compounds were assayed at 22 concentrations with each biosensor after a 10-minute room temperature incubation period. […] All BRET ratios were standardized using the universal BRET (uBRET) equation: uBRET=BRETratio-A/B-A×10,000 where A is the BRET ratio obtained from transfection of negative control and B is the BRET ratio obtained from transfection of positive control. […] The data were analyzed using the four-parameter logistic non-linear regression model in GraphPad Prism 9.1 and data were presented as means ± CIs of 1–4 independent experiments.
(§2) The SEM was calculated for the logEmax/EC50 ratios using the following equation: SEM=σ/n where σ is the standard deviation, and n is the number of experiments.

[2] = biological target: T1, CB1 (Rattus norvegicus, UniProt P20272); assay: Radioligand competition binding with [3H]-CP-55,940, rat brain membranes; details: for % [3H]-CP-55,940 displacement (mean) from single point screen: screens at 10 μM (white cells), 1 μM (orange) or 300 nM (green), cell colours not visible; for Emax: maximal radioligand displacement, read-out: rCB1 binding Emax [SEM]; for Ki: [3H]-CP-55,940 competition, rat brain membranes
T1 construct: membrane preparations from rat brain (source of CB1); tissue Bioivt RAT00BRAINMZN; host or cells: rat brain
T1 sequence (P20272 whole entry): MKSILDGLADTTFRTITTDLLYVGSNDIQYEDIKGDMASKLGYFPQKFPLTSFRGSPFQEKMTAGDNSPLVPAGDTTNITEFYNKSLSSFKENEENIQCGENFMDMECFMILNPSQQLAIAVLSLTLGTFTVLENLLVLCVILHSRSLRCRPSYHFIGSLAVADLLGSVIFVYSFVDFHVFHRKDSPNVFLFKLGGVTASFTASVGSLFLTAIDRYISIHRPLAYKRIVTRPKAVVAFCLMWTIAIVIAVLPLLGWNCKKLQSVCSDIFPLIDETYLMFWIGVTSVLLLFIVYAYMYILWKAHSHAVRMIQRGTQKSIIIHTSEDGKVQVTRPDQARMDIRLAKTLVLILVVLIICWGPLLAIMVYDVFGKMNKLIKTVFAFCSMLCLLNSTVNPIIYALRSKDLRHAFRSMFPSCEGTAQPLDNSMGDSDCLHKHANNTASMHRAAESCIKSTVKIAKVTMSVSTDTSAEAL
Method: The results were analyzed using nonlinear regression to determine the IC50 and Ki values for each ligand (Prism by GraphPad Software, Inc., San Diego, CA). The Ki values are expressed as the mean of two to three experiments each performed in triplicate.

[3] = system: C56BL/6 mice; assay: Catalepsy test (vertical wire mesh); format: in vivo, mouse; details: non-cannabinoid positive control
Method: Thirty and 60 minutes after an i.p. injection of the compounds, mice were placed on a vertical wire mesh and the latency to move all four paws was recorded.

[4] = biological target: hCB1 (Homo sapiens, UniProt P21554); assay: bioSens-All ebBRET effector biosensor signaling profiling, HEK293; format: cell-based; parameters: host or cells: HEK293 (HEK293SL clone), transient
Chain of hCB1 (P21554 whole entry): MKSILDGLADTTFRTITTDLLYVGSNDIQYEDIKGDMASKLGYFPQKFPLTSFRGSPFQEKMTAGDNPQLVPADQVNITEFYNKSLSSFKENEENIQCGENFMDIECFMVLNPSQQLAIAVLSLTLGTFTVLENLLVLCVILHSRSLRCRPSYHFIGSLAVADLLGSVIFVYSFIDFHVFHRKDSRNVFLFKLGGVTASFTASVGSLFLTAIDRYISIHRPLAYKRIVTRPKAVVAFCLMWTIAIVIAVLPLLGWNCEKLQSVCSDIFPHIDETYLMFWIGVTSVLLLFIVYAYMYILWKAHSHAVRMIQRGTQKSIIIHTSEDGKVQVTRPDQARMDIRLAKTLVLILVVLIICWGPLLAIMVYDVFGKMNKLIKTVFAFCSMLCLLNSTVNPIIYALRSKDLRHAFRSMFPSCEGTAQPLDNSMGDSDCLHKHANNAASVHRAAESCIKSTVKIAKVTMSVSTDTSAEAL
Method: as §1, §2

[5] = HEK293, read-out: hCB1 Gi1 Emax [95% CI]
[6] = HEK293, read-out: hCB1 GoB Emax [95% CI]
[7] = HEK293, read-out: hCB1 Gz Emax [95% CI]
[8] = hCB1 GoB EC50 [95% CI], GoB sensor

Chain of hCB2 (P34972 whole entry, the tested form may be a part): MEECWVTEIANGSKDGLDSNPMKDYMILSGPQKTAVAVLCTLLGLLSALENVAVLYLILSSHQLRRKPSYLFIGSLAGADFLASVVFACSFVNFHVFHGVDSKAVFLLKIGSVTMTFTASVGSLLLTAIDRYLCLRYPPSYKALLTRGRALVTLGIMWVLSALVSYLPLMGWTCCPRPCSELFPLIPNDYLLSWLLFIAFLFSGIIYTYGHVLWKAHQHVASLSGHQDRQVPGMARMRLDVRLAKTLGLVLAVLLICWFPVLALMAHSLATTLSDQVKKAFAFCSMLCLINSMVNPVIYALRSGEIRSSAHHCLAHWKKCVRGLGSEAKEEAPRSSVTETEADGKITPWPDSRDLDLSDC

CCCCC/C=C\C/C=C\C/C=C\C/C=C\CCCC(=O)OC(CO)CO [2-AG, reference compound]
hCB2 Gi1 pEC50 [95% CI] ([1]; Gi1 sensor): 6.66 [6.6 – 6.7] | hCB2 Gi2 pEC50 [95% CI] ([1]; Gi2 sensor): 7.0 [6.9 – 7.2] | hCB2 Gi2 Emax [95% CI] ([1]; Gi2 sensor, normalized to CP-55,940): 78 [74 – 84] | hCB2 GoB pEC50 [95% CI] ([1]; GoB sensor): 6.4 [6.3 – 6.5] | hCB2 GoB Emax [95% CI] ([1]; GoB sensor, normalized to CP-55,940): 101 [98 – 104] | hCB2 Gz pEC50 [95% CI] ([1]; Gz sensor): 5.7 [4.1 – 6.0] | hCB2 Gz Emax [95% CI] ([1]; Gz sensor, normalized to CP-55,940): 96 [76 – 233] | EC50 ([1]; read-out: hCB2 Barr2 + GRK2 EC50 [95% CI], ßarrestin-2 sensor with GRK2): 1850 nM | EC50 ([1]; read-out: hCB2 Gi1 EC50 [95% CI], Gi1 sensor): 217 nM | EC50 ([1]; read-out: hCB2 Gi2 EC50 [95% CI], Gi2 sensor): 96 nM | EC50 ([1]; read-out: hCB2 GoB EC50 [95% CI], GoB sensor): 394 nM | EC50 ([1]; read-out: hCB2 Gz EC50 [95% CI], Gz sensor): 2120 nM | hCB2 Barr2 + GRK2 pEC50 [95% CI] ([1]; ßarrestin-2 sensor with GRK2): 5.7 [5.4 – 6.0] | hCB2 Barr2 + GRK2 Emax [95% CI] ([1]; ßarrestin-2 sensor with GRK2, normalized to CP-55,940): 118 [104 – 140]

Cc1cc(C(=O)N2CC3(CCC3)[C@@H]3COC[C@@H]32)nn1-c1cccc(C(F)(F)F)c1 [10_14]
% [3H]-CP-55,940 displacement (mean) from single point screen [2]: 91.30%

COC(=O)[C@@H]1[C@@H]2CCC[C@@H]2CN1C(=O)c1nn(-c2cccc(C(F)(F)F)c2)c2c1CCC2 [10_17]
% [3H]-CP-55,940 displacement (mean) from single point screen [2]: 98.24%

CCCCCCC(C)(C)c1cc(O)c2c(c1)OC(C)(C)C1CCC(=O)CC21 (stereo not drawn) [Nabilone, reference compound]
Emax [2]: 81% | Ki ([2]; rCB1 binding pKi [95% CI]): 2.51 nM

N#Cc1cccc(OCc2ccoc2C(=O)OCC2CSc3ccccc3O2)c1 (stereo not drawn) [compound 5424]
Emax [2]: 104% | Ki ([2]; rCB1 binding Ki [95% CI]): 876 nM | % [3H]-CP-55,940 displacement (mean) from single point screen ([2]; listed as 7019_31): 80.66%

O=C(CCCN1CCC(O)(c2ccc(Cl)cc2)CC1)c1ccc(F)cc1 [haloperidol, reference compound]
catalepsy [3]: dramatic catalepsy

COC(=O)[C@H](c1cccs1)N(C)C(=O)c1cc(C)n(-c2cccc(C(F)(F)F)c2)n1 [‘1066]
Emax [2]: 97% | Ki ([2]; rCB1 binding Ki [95% CI]): 1720 nM

Cc1cc(C(=O)NC(c2ccccc2)c2ccco2)nn1-c1cccc(C(F)(F)F)c1 (stereo not drawn) [‘1081]
Emax [2]: 96% | Ki ([2]; rCB1 binding Ki [95% CI]): 116 nM | Emax [4, 5]: 49% | Emax [4, 6]: 45% | Emax [4, 7]: 72% | EC50 ([4]; hCB1 Gi1 EC50 [95% CI]): 150 nM | EC50 [4, 8]: 91.7 nM | EC50 ([4]; hCB1 Gz EC50 [95% CI]): 225 nM | EC50 ([4]; hCB1 Gz pEC50 [95% CI]): 200 nM

Cc1cc(C(=O)N(C)C(c2ccccc2)c2ccco2)nn1-c1cccc(C(F)(F)F)c1 (stereo not drawn) [‘1082]
Emax [2]: 94% | Ki ([2]; rCB1 binding Ki [95% CI]): 850 nM

Cc1cc(C(=O)NC(c2ccco2)c2ccco2)nn1-c1cccc(C(F)(F)F)c1 [‘1090]
Emax [2]: 99% | Ki ([2]; rCB1 binding Ki [95% CI]): 90.8 nM | Emax [4, 5]: 81% | Emax [4, 6]: 90% | Emax [4, 7]: 115% | EC50 ([4]; hCB1 Gi1 EC50 [95% CI], Gi1 sensor): 35.6 nM | EC50 ([4]; hCB1 Gi1 pEC50 [95% CI], Gi1 sensor): 31.6 nM | EC50 [4, 8]: 37.3 nM | EC50 ([4]; hCB1 Gz EC50 [95% CI]): 126 nM

Cn1nc(-c2nnc(C(C)(C)Oc3ccc(C(F)(F)F)cc3)o2)c2ccccc2c1=O [‘2153]
Emax [2]: 82.6% | Ki ([2]; rCB1 binding Ki [95% CI]): 163 nM | Emax [4, 5]: 89% | Emax [4, 6]: 109% | EC50 ([4]; hCB1 Gi1 EC50 [95% CI]): 1010 nM | EC50 ([4]; hCB1 GoB EC50 [95% CI]): 2060 nM

Cc1cc(C(=O)N2CC3(CCC3)[C@H]2[C@@H]2CCCO2)nn1-c1cccc(C(F)(F)F)c1 [‘3737a]
Emax [4, 5]: 98% | Emax [4, 6]: 118% | Emax [4, 7]: 140% | EC50 ([4]; hCB1 Gi1 EC50 [95% CI]): 2800 nM | EC50 ([4]; hCB1 GoB EC50 [95% CI]): 6730 nM | EC50 ([4]; hCB1 Gz EC50 [95% CI]): 2470 nM | EC50 ([4]; hCB1 Gz pEC50 [95% CI]): 2510 nM

Cc1cc(C(=O)N2CC3(CCC3)[C@H]2[C@H]2CCCO2)nn1-c1cccc(C(F)(F)F)c1 [‘3737b]
Emax [4, 5]: 89% | Emax [4, 6]: 152% | Emax [4, 7]: 231% | EC50 ([4]; hCB1 Gi1 EC50 [95% CI]): 3030 nM | EC50 ([4]; hCB1 GoB EC50 [95% CI]): 19800 nM | EC50 ([4]; hCB1 Gz EC50 [95% CI]): 30800 nM

— article doi:10.1101/2023.02.27.530254, “Large library docking for cannabinoid-1 receptor agonists with reduced side effects” (bioRxiv, 2024)
